# Measurements from article PMC8580996, “2-Oxoglutarate derivatives can selectively enhance or inhibit the activity of human oxygenases” (Nature Communications, 2021).
# Several values for one entry are separate records, joined by “and”; a condition that tells them apart may be missing. Identical values can stand only once. Like-named read-outs stand apart in the source and are kept apart here.
# Key:
# AspH [1] = molecular target: T1, AspH (Homo sapiens, UniProt Q12797); set-up: method as in PMID 34163896; settings: hFX-CP101–119 substrate, 330 μM 2OG or 2OG derivative, t = 15 min; cited from earlier work
# T1 construct: the tetratricopeptide repeat domain (His6-AspH315-758), was produced and purified as previously reported; made in house
# T1 sequence (Q12797 315-758): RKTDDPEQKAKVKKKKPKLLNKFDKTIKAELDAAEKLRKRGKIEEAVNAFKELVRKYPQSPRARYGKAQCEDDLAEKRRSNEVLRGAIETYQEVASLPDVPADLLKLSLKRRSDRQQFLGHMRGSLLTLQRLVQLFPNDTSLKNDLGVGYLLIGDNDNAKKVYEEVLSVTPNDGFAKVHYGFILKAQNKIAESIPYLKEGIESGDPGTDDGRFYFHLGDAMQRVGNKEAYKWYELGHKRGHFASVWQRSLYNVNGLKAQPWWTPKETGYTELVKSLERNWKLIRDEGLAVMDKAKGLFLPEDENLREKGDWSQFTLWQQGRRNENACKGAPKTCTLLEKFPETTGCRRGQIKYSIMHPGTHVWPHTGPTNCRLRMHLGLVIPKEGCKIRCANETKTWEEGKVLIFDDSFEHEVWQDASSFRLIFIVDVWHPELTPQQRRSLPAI
# FIH [2] = molecular target: T2, FIH (Homo sapiens, UniProt Q9NWT6); assay: SPE-MS FIH turnover (cosubstrate) assay in the absence of 2OG; format: biochemical; settings: 330 μM 2OG or 2OG derivative, no 2OG, t = 15 min
# T2 sequence (Q9NWT6 whole entry): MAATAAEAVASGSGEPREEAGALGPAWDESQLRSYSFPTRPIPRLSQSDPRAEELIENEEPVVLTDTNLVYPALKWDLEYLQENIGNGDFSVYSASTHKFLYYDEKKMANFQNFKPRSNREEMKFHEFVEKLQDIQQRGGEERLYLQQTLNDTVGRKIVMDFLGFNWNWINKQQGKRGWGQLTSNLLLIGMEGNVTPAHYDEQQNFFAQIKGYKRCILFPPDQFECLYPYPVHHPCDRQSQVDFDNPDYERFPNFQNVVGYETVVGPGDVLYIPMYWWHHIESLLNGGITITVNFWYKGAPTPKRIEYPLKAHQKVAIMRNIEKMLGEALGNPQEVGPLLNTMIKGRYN
# Experimental: The ability of 35 synthetic C3/C4-substituted 2OG derivatives, which were prepared via a reported procedure (Supplementary Fig. 1 and Supplementary Methods)[21], to sustain catalysis by purified recombinant FIH in the absence of 2OG was examined using an assay directly monitoring substrate depletion and product formation (i.e., a +16 Da mass shift) by solid-phase extraction (SPE) coupled to mass spectrometry (SPE-MS)[44],[45]. […] (i.e. CA1–20)[47], were used as FIH substrates to test for potential substrate-dependent differences in terms of cosubstrate analog selectivity.
# Assay samples were aspirated under vacuum for 0.6 s and loaded onto a C4 SPE cartridge. After loading, the C4 SPE cartridge was washed with 0.1%v/v aqueous formic acid to remove non-volatile buffer salts (5.5 s, 1.5 mL/min). […] The mass spectrometer was operated using the MassHunter Workstation B.08.00 software (Agilent), the mass spectrometer parameters were: capillary voltage (4000 V), nozzle voltage (1000 V), fragmentor voltage (365 V), gas temperature (280 °C), gas flow (13 L/min), sheath gas temperature (350 °C), sheath gas flow (12 L/min). […] Data were exported into Microsoft Excel and used to calculate the % conversion of the hydroxylation reaction using the equation: % conversion = 100 × (integral product peptide)/(integral substrate peptide+integral product peptide). […] Z′-factors were calculated according to the cited literature using Microsoft Excel (Supplementary Fig. 26)[83].
# FIH [3] = molecular target: T2, FIH; assay: SPE-MS FIH inhibition assay; format: biochemical; as to IC50 FIH: 0.15 µM FIH
# Experimental: FIH inhibition assays were performed as described, using cosubstrate/cofactor stock solutions (L-ascorbic acid, LAA: 50 mM in MQ-grade water; 2-oxoglutarate, 2OG: 10 mM in MQ-grade water; ammonium iron(II) sulfate hexahydrate, FAS, (NH4)2Fe(SO4)2·6H2O: 400 mM in 20 mM HCl diluted to 1 mM in MQ-grade water), which were freshly prepared from commercially-sourced solids (Sigma Aldrich).
# Dimethyl sulfoxide (DMSO) solutions of the 2OG derivatives were dry dispensed across 384-well polypropylene assay plates (Greiner) in an approximately threefold and 11-point dilution series (100 μM top concentration; the final DMSO assay concentration was kept constant at 0.5%v/v) using an ECHO 550 acoustic dispenser (Labcyte). […] Each reaction was performed in technical duplicates in adjacent wells of the assay plates; additionally, assays were performed in two independent duplicates on different days using different inhibitor solutions.
# The Enzyme Mixture (25 μL/well), containing 0.3 μM His6-FIH in buffer (50 mM Tris, 50 mM NaCl, pH 7.5), was dispensed across the inhibitor-containing 384-well assay plates with a multidrop dispenser (ThermoFischer Scientific) at 20 °C under an ambient atmosphere. The plates were subsequently centrifuged (1000 rpm, 15 s) and incubated for 15 min at 20 °C. The Substrate Mixture (25 μL/well), containing 10.0 μM HIF-1α788–822[37] substrate, 200 μM LAA, 20.0 μM 2OG, and 20.0 μM FAS in buffer (50 mM Tris, 50 mM NaCl, pH 7.5), was added using the multidrop dispenser. The plates were centrifuged (1000 rpm, 15 s) and after incubating for 15 min, the enzyme reaction was stopped by the addition of 10%v/v aqueous formic acid (5 μL/well). The plates were then centrifuged (1000 rpm, 30 s) and analyzed by MS.
# MS-analyses were performed using a RapidFire RF 365 high-throughput sampling robot (Agilent) attached to an iFunnel Agilent 6550 accurate-mass quadrupole time-of-flight mass spectrometer operated in the positive ionization mode. Assay samples were aspirated under vacuum for 0.6 s and loaded onto a C4 SPE cartridge. After loading, the C4 SPE cartridge was washed with 0.1%v/v aqueous formic acid to remove non-volatile buffer salts (5.5 s, 1.5 mL/min). […] The mass spectrometer was operated using the MassHunter Workstation B.08.00 software (Agilent), the mass spectrometer parameters were: capillary voltage (4000 V), nozzle voltage (1000 V), fragmentor voltage (365 V), gas temperature (280 °C), gas flow (13 L/min), sheath gas temperature (350 °C), sheath gas flow (12 L/min). The m/z + 2 (for CA1–20) or +3 (for HIF-1α788–822) charge states of the peptide (substrate) and the hydroxylated peptide (product) were used to extract ion chromatogram data, peak areas were integrated using RapidFire Integrator 4.3.0 (Agilent). Data were exported into Microsoft Excel and used to calculate the % conversion of the hydroxylation reaction using the equation: % conversion = 100 × (integral product peptide)/(integral substrate peptide+integral product peptide). […] Z′-factors were calculated according to the cited literature using Microsoft Excel (Supplementary Fig. 26)[83].
# SPE-MS FIH inhibition assays were performed as described in the Methods section.
# Tris, 50 mM NaCl, pH 7.5, 20 °C). […]
# AspH [4] = molecular target: T1, AspH; settings: cited from earlier work
# [5] = […] FIH, 5.0 μM HIF-1α788-822, 10 μM 2OG, mean of two runs
# [6] = source data of Table 3, single independent replicates, read-out: FIH IC50, independent replicate
# [7] = […] FIH, 5.0 μM HIF-1α788-822, 10 μM 2OG, mean of two runs, read-out: IC50 FIH
Structure (SMILES),"FIH activity, %-substrate conversion (FIH [2]; CA1–20 substrate)","FIH activity, %-substrate conversion (FIH [2]; HIF-1α788–822 substrate)",IC50 FIH (FIH [3]; [5]),IC50 (FIH [3]; [6]),IC50 (FIH [3]; [7]) [µM],"FIH IC50, independent replicate (FIH [3]; source data of Table 3, single independent replicates)","AspH activity, %-substrate conversion (AspH [1]) [%]","IC50 (AspH [4]; NOFD control, supplementary ref 13) [µM]","IC50 (AspH [4]; 0.05 μM AspH, 1.0 μM hFX-CP101-119, 3.0 μM 2OG, ref 21 (supplementary ref 1)) [µM]"
O=C(O)C(=O)[C@@H]1[C@@H](C(=O)O)[C@@H]2C=C[C@H]1C2 (racemic) [compound 24],^c<1% ^d<1%,^c<1% ^d<1%,inactive,,,,<1,,
"O=C(O)C(=O)N[C@H](Cc1ccccc1)C(=O)O [NOFD, N-oxalyl-D-phenylalanine, reference compound]",,,,,,,,15.5,
"CCCC(CC(=O)C(=O)O)C(=O)O (stereo not drawn) [compound 15, 4-propyl-2OG]",~70%,~5%,,15.2 µM and 14.3 µM,14.8,,<1,,
CC(C)(C)CCC(CC(=O)C(=O)O)C(=O)O (stereo not drawn) [compound 17],^c<1% ^d<1%,^c<1% ^d<1%,,,38.9,,<1,,
"O=C(O)C(=O)CC(Cc1ccccc1)C(=O)O (stereo not drawn) [compound 19, 4-benzyl-2OG]",^c<1% ^d<1%,^c<1% ^d<1%,,3.42 µM and 3.64 µM,,,<1,,
O=C(O)C(=O)CC(Cc1ccc2ccccc2c1)C(=O)O (stereo not drawn) [compound 20],^c<1% ^d<1%,^c<1% ^d<1%,,,2.5,,<1,,
CC1(C)C(C(=O)O)C1C(=O)C(=O)O (stereo not drawn) [compound 21],^c<1% ^d<1%,^c<1% ^d<1%,,,19.4,,<1,,
O=C(O)C(=O)C1(C(=O)O)CC1 [compound 23],^c<1% ^d<1%,^c<1% ^d<1%,inactive,,,,<1,,
O=C(O)C(=O)c1ccc(C(=O)O)s1 [compound 35],^c<1% ^d<1%,^c<1% ^d<1%,inactive,,,not inhibiting,~15,,

# Second part, led by results:
"FIH activity, %-substrate conversion (FIH [2]; CA1–20 substrate)","FIH activity, %-substrate conversion (FIH [2]; HIF-1α788–822 substrate)",IC50 FIH (FIH [3]; [5]),IC50 (FIH [3]; [6]),IC50 (FIH [3]; [7]) [µM],"FIH IC50, independent replicate (FIH [3]; source data of Table 3, single independent replicates)",Structure (SMILES),"AspH activity, %-substrate conversion (AspH [1]) [%]","IC50 (AspH [4]; NOFD control, supplementary ref 13) [µM]","IC50 (AspH [4]; 0.05 μM AspH, 1.0 μM hFX-CP101-119, 3.0 μM 2OG, ref 21 (supplementary ref 1)) [µM]"
~20%,~2%,,4.54 µM and 4.52 µM,,,"CCC(CC(=O)O)C(=O)C(=O)O (stereo not drawn) [compound 2, 3-ethyl 2OG]",<1,,~1.2
^c<1% ^d<1%,^c<1% ^d<1%,,,31,,CC(C)(C)CCC(CC(=O)O)C(=O)C(=O)O (stereo not drawn) [compound 4],<1,,
^c<1% ^d<1%,^c<1% ^d<1%,,,5.7,,O=C(O)CC(CCCc1ccccc1)C(=O)C(=O)O (stereo not drawn) [compound 5],<1,,
^c<1% ^d<1%,^c<1% ^d<1%,,5.76 µM and 7.01 µM,6.4,,O=C(O)CC(Cc1ccccc1)C(=O)C(=O)O (stereo not drawn) [compound 6],<1,,
^c<1% ^d<1%,^c<1% ^d<1%,,,7.5,,O=C(O)CC(Cc1ccc(F)cc1)C(=O)C(=O)O (stereo not drawn) [compound 7],<1,,
^c<1% ^d<1%,^c<1% ^d<1%,,,12.7,,O=C(O)CC(Cc1ccc(OC(F)(F)F)cc1)C(=O)C(=O)O (stereo not drawn) [compound 8],<1,,
^c<1% ^d<1%,^c<1% ^d<1%,,,3.6,,COc1ccc(CC(CC(=O)O)C(=O)C(=O)O)cc1 (stereo not drawn) [compound 9],<1,,
^c<1% ^d<1%,^c<1% ^d<1%,inactive,,,,Cc1cc(C)cc(CC(CC(=O)O)C(=O)C(=O)O)c1 (stereo not drawn) [compound 10],<1,,
